In patent US20250320213A1, “Nitrogen-Containing Heterocyclic Compounds” (Pfizer Inc., priority 2024, published 2025):

Molecular target: T1, STAT6 (Homo sapiens, UniProt P42226)
T1 construct: stably transfected HaCaT keratinocyte cell line, which expresses NanoLuc luciferase reporter gene under the transcriptional control of the STAT6 responsive promoter; endogenous in cells; host or cells: HaCaT keratinocyte reporter cell line (stably transfected with a NanoLuc reporter)
T1 sequence (P42226 1-847): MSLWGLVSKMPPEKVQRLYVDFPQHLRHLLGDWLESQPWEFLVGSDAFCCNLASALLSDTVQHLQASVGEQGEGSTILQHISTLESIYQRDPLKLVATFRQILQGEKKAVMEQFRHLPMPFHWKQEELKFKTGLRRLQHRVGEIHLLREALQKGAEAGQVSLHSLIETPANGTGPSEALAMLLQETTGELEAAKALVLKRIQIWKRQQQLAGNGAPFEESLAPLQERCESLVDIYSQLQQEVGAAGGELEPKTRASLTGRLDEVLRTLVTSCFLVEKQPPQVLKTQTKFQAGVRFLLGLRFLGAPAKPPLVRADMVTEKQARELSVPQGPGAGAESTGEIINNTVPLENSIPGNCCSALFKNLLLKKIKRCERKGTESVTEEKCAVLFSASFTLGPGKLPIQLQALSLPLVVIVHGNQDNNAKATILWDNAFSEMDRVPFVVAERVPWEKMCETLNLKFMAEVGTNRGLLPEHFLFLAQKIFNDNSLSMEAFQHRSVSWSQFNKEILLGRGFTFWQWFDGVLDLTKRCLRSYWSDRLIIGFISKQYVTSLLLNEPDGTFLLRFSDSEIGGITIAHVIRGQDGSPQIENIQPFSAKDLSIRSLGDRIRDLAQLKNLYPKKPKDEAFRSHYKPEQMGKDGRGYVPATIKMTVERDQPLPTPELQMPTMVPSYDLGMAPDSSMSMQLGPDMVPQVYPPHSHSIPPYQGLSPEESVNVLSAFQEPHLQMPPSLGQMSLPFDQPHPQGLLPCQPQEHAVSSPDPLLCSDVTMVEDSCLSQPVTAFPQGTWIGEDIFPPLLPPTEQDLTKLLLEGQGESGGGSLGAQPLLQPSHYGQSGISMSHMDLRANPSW
Experiment: STAT6 Reporter Luciferase Assay (IL-13 stimulated HaCaT keratinocyte NanoLuc reporter cells)
Type: cell-based
Conditions: IL-13 stimulated HaCaT STAT6 NanoLuc reporter cells; read-out: Reporter EC50
Description: Pharmacological measurements of STAT6 transcriptional activity through the IL-13-IL-13 receptor/IL-4 receptor pathway were made with a stably transfected HaCaT keratinocyte cell line, which expresses NanoLuc luciferase reporter gene under the transcriptional control of the STAT6 responsive promoter for IL-13Ra2. The readout of the STAT6 activity utilized Promega Nano-Glo Luciferase assay kit.
The reporter cells were cultured in a growth media comprised of DMEM High Glucose, no calcium and no glutamine, 10% heat inactivated fetal bovine serum (HI FBS), 1% 100× Glutamax, and 100 U/mL Penicillin-Streptomycin (units of penicillin in 1 mL of streptomycin). Seven thousand cells were plated in 25 microliter (μL) per well in a 384-well, white bottom, tissue culture plate. Cells were cultured overnight at 37° C. The next day, test compounds (solubilized and serially diluted in DMSO, in an 11 point, 4-fold dilution series in duplicate) were spotted, 60 nanoliters (nL) per well, into a 384 well v-bottom polypropylene plate. Thirty μL per well of 37° C. dosing media (Dulbecco's modified eagle medium (DMEM) High Glucose, no calcium and no glutamine with 2% HI FBS) was added to the compound plate. Growth media was removed from the cell plate, and the cells were washed with DPBS. Twenty μL per well of compounds diluted in dosing media were transferred from the compound plate to the cell plate and the compounds were further diluted with an additional 15 μL of dosing media in the cell plate: the cell plate was incubated for two hours at 37° C. After two hours, STAT6 activity was stimulated with the addition of 5 μL per well of IL-13 (R&D Systems) in dosing media with a final concentration of 0.12 nM IL13. Cells were incubated at 37° C. for 4 hours to allow for reporter gene expression, then all media was removed from the plate. The cell plates were treated with assay buffer and Luciferase substrate from Nano-Glo Luciferase Assay Kit for 15 min and then measured for luminescence on an EnVision 2105 multilabel reader (PerkinElmer).

CC(C)n1nc(C(=O)NCc2ccc(NC(=O)N3CCN(C)CC3)cc2)c2c1[C@@H](C)CN(c1ccc(-n3ccnn3)cc1)C2 [Example 674, (S)-5-(4-(1H-1,2,3-triazol-1-yl)phenyl)-1-isopropyl-7-methyl-N-(4-(4-methylpiperazine-1-carboxamido)benzyl)-4,5,6,7-tetrahydro-1H-pyrazolo[4,3-c]pyridine-3-carboxamide]
EC50: 0.0002 µM

Cc1cnn2c1CN(C(=O)c1ccc(N3CCc4c(c(C(=O)NCc5ccc(NC(=O)N(C)C)cc5)nn4C(C)C)C3)nc1)CC2 [Example 419, N-(4-(3,3-dimethylureido)benzyl)-1-isopropyl-5-(5-(3-methyl-4,5,6,7-tetrahydropyrazolo[1,5-a]pyrazine-5-carbonyl)pyridin-2-yl)-4,5,6,7-tetrahydro-1H-pyrazolo[4,3-c]pyridine-3-carboxamide]
EC50: 0.044 µM

CC(=O)N1[C@H](C)CN(C(=O)c2ccc(N3CCc4c(c(C(=O)NCc5ccc(NC(=O)N(C)C)cc5)nn4C(C)C)C3)nc2)C[C@@H]1C [Example 299, 5-(5-((3S,5R)-4-acetyl-3,5-dimethylpiperazine-1-carbonyl)pyridin-2-yl)-N-(4-(3,3-dimethylureido)benzyl)-1-isopropyl-4,5,6,7-tetrahydro-1H-pyrazolo[4,3-c]pyridine-3-carboxamide]
EC50: 0.241 µM

COCC1CCN(C(=O)c2ccc(N3CCc4c(c(C(=O)NCc5ccc(NC(=O)N(C)C)cc5)nn4C(C)C)C3)nc2)C1 (racemic) [Example 194, rac-(R)-N-(4-(3,3-dimethylureido)benzyl)-1-isopropyl-5-(5-(3-(methoxymethyl)pyrrolidine-1-carbonyl)pyridin-2-yl)-4,5,6,7-tetrahydro-1H-pyrazolo[4,3-c]pyridine-3-carboxamide]
EC50: 0.401 µM

CC(C)n1nc(C(=O)NCc2ccc(NC(=O)N(C)C)cc2)c2c1CCN(c1ccc(C(=O)N3CCc4cnccc4C3)cn1)C2 [Example 434, N-(4-(3,3-dimethylureido)benzyl)-1-isopropyl-5-(5-(1,2,3,4-tetrahydro-2,6-naphthyridine-2-carbonyl)pyridin-2-yl)-4,5,6,7-tetrahydro-1H-pyrazolo[4,3-c]pyridine-3-carboxamide]
EC50: 0.082 µM

CC(C)n1nc(C(=O)NCc2ccc(NC(=O)N3CCN(C)[C@@H](C)C3)c(F)c2)c2c1[C@@H](C)CN(c1ccc(C(=O)N(C)C)cc1)C2 [Example 680, (S)-5-(4-(dimethylcarbamoyl)phenyl)-N-(4-((S)-3,4-dimethylpiperazine-1-carboxamido)-3-fluorobenzyl)-1-isopropyl-7-methyl-4,5,6,7-tetrahydro-1H-pyrazolo[4,3-c]pyridine-3-carboxamide]
EC50: 0.002 µM

CC(C)n1nc(C(=O)NCc2ccc(NC(=O)N(C)C)cc2)c2c1CCN(c1ccc(C(=O)N3C[C@@H]4OCCO[C@@H]4C3)cn1)C2 [Example 239, N-(4-(3,3-dimethylureido)benzyl)-5-(5-((4aR,7aS)-hexahydro-5H-[1,4]dioxino[2,3-c]pyrrole-6-carbonyl)pyridin-2-yl)-1-isopropyl-4,5,6,7-tetrahydro-1H-pyrazolo[4,3-c]pyridine-3-carboxamide]
EC50: 0.236 µM

CC(C)n1nc(C(=O)NCc2ccc(NC(=O)N(C)C)cc2)c2c1CCN(c1ccc(C(=O)N3CCc4cnn(C)c4C3)cn1)C2 [Example 371, N-(4-(3,3-dimethylureido)benzyl)-1-isopropyl-5-(5-(1-methyl-4,5,6,7-tetrahydro-1H-pyrazolo[3,4-c]pyridine-6-carbonyl)pyridin-2-yl)-4,5,6,7-tetrahydro-1H-pyrazolo[4,3-c]pyridine-3-carboxamide]
EC50: 0.05 µM

Cc1nc2c(s1)CN(C(=O)c1ccc(N3CCc4c(c(C(=O)NCc5ccc(NC(=O)N(C)C)cc5)nn4C(C)C)C3)nc1)CC2 [Example 365, N-(4-(3,3-dimethylureido)benzyl)-1-isopropyl-5-(5-(2-methyl-4,5,6,7-tetrahydrothiazolo[5,4-c]pyridine-5-carbonyl)pyridin-2-yl)-4,5,6,7-tetrahydro-1H-pyrazolo[4,3-c]pyridine-3-carboxamide]
EC50: 0.006 µM

CC(C)n1nc(C(=O)NCc2ccc(NC(=O)N(C)C)cc2)c2c1CCN(c1ccc(C(=O)N3CCc4ncccc4C3)cn1)C2 [Example 376, N-(4-(3,3-dimethylureido)benzyl)-1-isopropyl-5-(5-(5,6,7,8-tetrahydro-1,6-naphthyridine-6-carbonyl)pyridin-2-yl)-4,5,6,7-tetrahydro-1H-pyrazolo[4,3-c]pyridine-3-carboxamide]
EC50: 0.01 µM

CC(C)n1nc(C(=O)NCc2ccc(NC(=O)N(C)C)cc2)c2c1CCN(c1ccc(C(=O)N3CCc4nccnc4C3)cn1)C2 [Example 366, N-(4-(3,3-dimethylureido)benzyl)-1-isopropyl-5-(5-(5,6,7,8-tetrahydropyrido[3,4-b]pyrazine-6-carbonyl)pyridin-2-yl)-4,5,6,7-tetrahydro-1H-pyrazolo[4,3-c]pyridine-3-carboxamide]
EC50: 0.029 µM

CC(C)n1nc(C(=O)NCc2ccc(NC(=O)N(C)C)cc2)c2c1CCN(c1ccc(C(=O)N3CC(=O)N[C@H](C)C3)cn1)C2 [Example 325, (R)-N-(4-(3,3-dimethylureido)benzyl)-1-isopropyl-5-(5-(3-methyl-5-oxopiperazine-1-carbonyl)pyridin-2-yl)-4,5,6,7-tetrahydro-1H-pyrazolo[4,3-c]pyridine-3-carboxamide]
EC50: 0.71 µM

CC(C)n1nc(C(=O)NCc2ccc(NC(=O)N(C)C)cc2)c2c1CCN(c1ccc(C(=O)N3Cc4ncsc4C3)cn1)C2 [Example 402, 5-(5-(5,6-dihydro-4H-pyrrolo[3,4-d]thiazole-5-carbonyl)pyridin-2-yl)-N-(4-(3,3-dimethylureido)benzyl)-1-isopropyl-4,5,6,7-tetrahydro-1H-pyrazolo[4,3-c]pyridine-3-carboxamide]
EC50: 0.003 µM

CCn1nc2c(c1C(=O)NCc1ccc(NC(=O)N(C)C)cc1)CN(c1ccc(C(=O)N(C)C)cn1)[C@@H](C)[C@@H]2C (stereo in doubt) [Example 316, rel-(6S,7S)-5-(5-(dimethylcarbamoyl)pyridin-2-yl)-N-(4-(3,3-dimethylureido)benzyl)-2-ethyl-6,7-dimethyl-4,5,6,7-tetrahydro-2H-pyrazolo[4,3-c]pyridine-3-carboxamide]
EC50: 3.77 µM

Cc1cccc2c1CN(C(=O)c1ccc(N3CCc4c(c(C(=O)NCc5ccc(NC(=O)N(C)C)cc5)nn4C(C)C)C3)nc1)C2 [Example 441, N-(4-(3,3-dimethylureido)benzyl)-1-isopropyl-5-(5-(4-methylisoindoline-2-carbonyl)pyridin-2-yl)-4,5,6,7-tetrahydro-1H-pyrazolo[4,3-c]pyridine-3-carboxamide]
EC50: 0.002 µM

CC(C)n1nc(C(=O)NCc2ccc(NC(=O)N(C)C)cc2)c2c1CCN(c1ccc(C(=O)N3CC4(CCO4)C3)cn1)C2 [Example 326, 5-(5-(1-oxa-6-azaspiro[3.3]heptane-6-carbonyl)pyridin-2-yl)-N-(4-(3,3-dimethylureido)benzyl)-1-isopropyl-4,5,6,7-tetrahydro-1H-pyrazolo[4,3-c]pyridine-3-carboxamide]
EC50: 1.28 µM

CC(C)n1nc(C(=O)NCc2ccc(NC(=O)N3CC[C@@H](CN(C)C)C3)c(F)c2)c2c1[C@@H](C)CN(c1ccc(C(=O)N(C)C)cc1)C2 [Example 681, (S)-N-(4-((S)-3-((dimethylamino)methyl)pyrrolidine-1-carboxamido)-3-fluorobenzyl)-5-(4-(dimethylcarbamoyl)phenyl)-1-isopropyl-7-methyl-4,5,6,7-tetrahydro-1H-pyrazolo[4,3-c]pyridine-3-carboxamide]
EC50: 0.003 µM
